Assay results taken from article PMC7164622, “Citrate lyase CitE in Mycobacterium tuberculosis contributes to mycobacterial survival under hypoxic conditions” (PLoS ONE, 2020).

Key:
MtbCitE (CitE) [1] = biological target: T1, MtbCitE (CitE) (Mycobacterium tuberculosis, UniProt P9WPE1)
MtbCitE (CitE) [2] = biological target: T1, MtbCitE (CitE); remark: listed apart in the source
[3] = biological target: the molecule itself; assay: cross-linking; chemical cross-linking with 4 μM disuccinimidyl suberate (DSS), 10 mM CitE protein (so in the source), 100 mM NaH2PO4 pH 8.0, 150 mM NaCl, room temperature, half an hour, then SDS-PAGE

Nc1ncnc2c1ncn2[C@@H]1O[C@H](COP(=O)(O)OP(=O)(O)OP(=O)(O)O)[C@@H](O)[C@H]1O [ATP]
activity with 0-1.5 mM ATP (MtbCitE (CitE) [1]): the citrate cleavage activity of MtbCitE was inhibited by ATP

O=C(O)CC(O)(CC(=O)O)C(=O)O [citrate]
citrate cleavage activity (MtbCitE (CitE) [2]): we predicted that purified MtbCitE had citrate lyase activity

B1: Mycobacterium tuberculosis CitE (MtbCitE), citrate lyase (enzyme)
chain: MNLRAAGPGWLFCPADRPERFAKAAAAADVVILDLEDGVAEAQKPAARNALRDTPLDPERTVVRINAGGTADQARDLEALAGTAYTTVMLPKAESAAQVIELAPRDVIALVETARGAVCAAEIAAADPTVGMMWGAEDLIATLGGSSSRRADGAYRDVARHVRSTILLAASAFGRLALDAVHLDILDVEGLQEEARDAAAVGFDVTVCIHPSQIPVVRKAYRPSHEKLAWARRVLAASRSERGAFAFEGQMVDSPVLTHAETMLRRAGEATSE
notes: also called Rv2498c; citrate lyase β-subunit
stoichiometry N [3]: 3
